From patent US11974991B1, “Adenosine receptor activity of methyl/ethyl 3-(substituted benzoyl)-6,8-dimethylindolizine-2-substituted-1-carboxylates” (KING FAISAL UNIVERSITY, priority 2023, dated 2024)
Like-named read-outs stand apart in the source and are kept apart here.

Tests used:
[1] = biological target: human A1R (Homo sapiens (Human), UniProt P30542); assay: Displacement of specific [3H]-CCPA binding at human A1R expressed in CHO cells; conditions: for Ki: [3H]-CCPA displacement, CHO cells, means ± SE, read-out: hA1R (Ki nM)
Description: (§1) Table 1 below reports the affinity and antagonist values of compounds KNV1-KNV13. In particular, the binding affinity is expressed in Ki and the antagonistic activity in IC50.

[2] = biological target: human A3R (Homo sapiens (Human), UniProt P0DMS8); assay: Displacement of specific [3H]-HEMADO binding at human A3R expressed in CHO cells
Description: as §1

[3] = biological target: hA3R (Homo sapiens (Human), UniProt P0DMS8); assay: Counteracting NECA-induced decrease of cAMP accumulation (GloSensor cAMP assay) in CHO cells expressing hA3R; type: cell-based
Method: (§2) The activity of the present compounds was evaluated using the GloSensor™ cAMP assay, which is a new non-radioactive method offering a simple approach to monitor GPCR activity through changes in the intracellular cAMP concentration. This assay uses a mutant form of Photinus pyralis luciferase into which a cAMP-binding protein moiety has been inserted. The binding with cAMP triggers a biosensor conformational change that leads to an increase of light output allowing to evaluate the activity of ligands at the receptor under study. Following pre-equilibration with a substrate, cells stably expressing both the receptor of interest and the biosensor can be used to evaluate GPCR function enabling easy kinetic measurements of cAMP accumulation or turnover in living cells.
The antagonist profile of the compounds on A3AR was studied by assessing their ability to counteract the NECA-induced decrease of cAMP accumulation. After 2 hrs of equilibration in reaction medium the cells were incubated in a 384 well plate (10 min at room temperature) with 3 μl of different antagonist concentrations and then treated with 3 μl of a fixed dose of agonist. 1 μl of Forskolin 500 μM, final concentration 10 μM, were added 10 minutes after agonist and various luminescence reads were performed at different incubation times.

[4] = biological target: hA2BR (Homo sapiens (Human), UniProt P29275); assay: Inhibition of NECA-stimulated adenylyl cyclase activity / cAMP accumulation (GloSensor cAMP assay) in CHO cells expressing hA2BR; type: cell-based; conditions: for IC50: inhibiting NECA-stimulated adenylyl cyclase activity, CHO cells, means ± SE
Method: as §2
The antagonist profile of the compounds on A2BAR was evaluated by assessing their ability to counteract the agonist NECA-induced increase of cAMP accumulation. After 2 hrs of equilibration in reaction medium cells were incubated in 384 well plate (10 min at room temperature) with 3 μl of different antagonist concentrations and then treated with 3 μl of a fixed dose of NECA. After further 10 minutes of incubation various luminescence reads were performed at different incubation times.

[5] = biological target: human A2AR (Homo sapiens (Human), UniProt P29274); assay: Displacement of specific [3H]-NECA binding at human A2AR expressed in CHO cells; conditions: for Ki: [3H]-NECA displacement, CHO cells, means ± SE, read-out: hA2AR (Ki nM)
Description: as §1

[6] = [3H]-HEMADO displacement, CHO cells, means ± SE, read-out: hA3R (Ki nM)
[7] = counteracting NECA-induced decrease of cAMP accumulation, CHO cells expressing hA3R, means ± SE, read-out: hA2AR (IC50 nM) [footnote e: hA3R]

Chain of hA2BR (P29275 whole entry): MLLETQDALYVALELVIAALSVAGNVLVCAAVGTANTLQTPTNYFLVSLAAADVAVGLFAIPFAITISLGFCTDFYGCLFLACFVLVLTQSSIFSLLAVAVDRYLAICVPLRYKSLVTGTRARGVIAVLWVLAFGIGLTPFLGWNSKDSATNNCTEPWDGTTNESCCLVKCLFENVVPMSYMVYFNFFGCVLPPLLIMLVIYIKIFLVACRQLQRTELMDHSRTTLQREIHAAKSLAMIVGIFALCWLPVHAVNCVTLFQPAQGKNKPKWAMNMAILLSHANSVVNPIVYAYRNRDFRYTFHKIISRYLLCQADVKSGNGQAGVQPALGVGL
Chain of human A2AR (P29274 whole entry): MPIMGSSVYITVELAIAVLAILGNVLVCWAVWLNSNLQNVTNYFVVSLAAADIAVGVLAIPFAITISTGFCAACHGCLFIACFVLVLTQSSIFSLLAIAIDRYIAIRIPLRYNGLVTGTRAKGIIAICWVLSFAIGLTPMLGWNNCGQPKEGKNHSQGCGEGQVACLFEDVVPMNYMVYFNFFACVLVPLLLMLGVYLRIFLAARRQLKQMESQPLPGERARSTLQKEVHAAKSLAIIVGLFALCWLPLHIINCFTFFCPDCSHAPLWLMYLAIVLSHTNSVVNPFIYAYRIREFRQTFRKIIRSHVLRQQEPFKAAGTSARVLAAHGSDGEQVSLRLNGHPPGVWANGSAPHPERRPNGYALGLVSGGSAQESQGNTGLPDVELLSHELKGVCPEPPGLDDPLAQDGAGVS
Chain of human A3R (P0DMS8 whole entry): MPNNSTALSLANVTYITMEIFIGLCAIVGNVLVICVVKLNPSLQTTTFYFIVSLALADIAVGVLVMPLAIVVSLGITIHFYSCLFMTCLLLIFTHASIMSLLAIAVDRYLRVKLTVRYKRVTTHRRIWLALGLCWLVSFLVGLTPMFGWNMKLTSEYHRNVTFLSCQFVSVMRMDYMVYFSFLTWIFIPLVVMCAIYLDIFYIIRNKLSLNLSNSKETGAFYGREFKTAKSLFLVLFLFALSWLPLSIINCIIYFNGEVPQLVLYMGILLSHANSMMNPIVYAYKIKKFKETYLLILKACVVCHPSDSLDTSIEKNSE
Chain of hA3R (P0DMS8 whole entry): as above
Chain of human A1R (P30542 whole entry): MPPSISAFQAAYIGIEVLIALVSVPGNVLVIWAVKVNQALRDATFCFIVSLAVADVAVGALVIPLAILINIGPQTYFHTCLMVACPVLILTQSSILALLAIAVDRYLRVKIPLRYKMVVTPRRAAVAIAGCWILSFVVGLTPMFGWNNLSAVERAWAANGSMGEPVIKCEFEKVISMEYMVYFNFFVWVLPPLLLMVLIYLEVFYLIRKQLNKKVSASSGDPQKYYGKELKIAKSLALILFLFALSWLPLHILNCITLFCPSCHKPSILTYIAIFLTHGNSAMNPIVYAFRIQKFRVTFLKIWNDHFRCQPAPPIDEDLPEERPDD

Compound	Ki [1] [nM]	Ki [2, 6] [nM]	IC50 [3, 7] [nM]	IC50 [4] [nM]	Ki [5] [nM]	activity in the other subtypes (A1) [1]	Ki ([2]; unit inferred, read-out: Ki towards A3AR) [nM]	IC50 ([3]; unit inferred, read-out: IC50, antagonistic activity on A3AR) [nM]	activity in the other subtypes (A2B) [4]	activity in the other subtypes (A2A) [5]
CCOC(=O)c1cc(C(=O)c2ccc(OC)cc2)n2cc(C)cc(C)c12 [KNV9, Ethyl 3-(4-methoxybenzoyl)-6,8-dimethylindolizine-1-carboxylate]	> 30000	305 ± 57	865 ± 105	> 30000	> 30000	–	–	–	–	–
CCOC(=O)c1cc(C(=O)c2ccc(C#N)cc2)n2cc(C)cc(C)c12 [KNV11, Ethyl 3-(4-cyanobenzoyl)-6,8-dimethylindolizine-1-carboxylate]	> 30000	8540 ± 1500	25900 ± 4200	> 30000	> 30000	–	–	–	–	–
COC(=O)c1c(C(=O)OC)c2c(C)cc(C)cn2c1C(=O)c1ccc(C#N)cc1 [KNV12, Dimethyl 3-(4-cyanobenzoyl)-6,8-dimethylindolizine-1,2-dicarboxylate]	> 30000	12100 ± 1700	41100 ± 9220	> 30000	> 30000	–	–	–	–	–
CCOC(=O)c1cc(C(=O)c2cc(C(F)(F)F)cc(C(F)(F)F)c2)n2cc(C)cc(C)c12 [KNV13, Ethyl 3-(3,5-bis(trifluoromethyl)benzoyl)-6,8-dimethylindolizine-1-carboxylate]	> 30000	7140 ± 130	28000 ± 5220	> 30000	> 30000	–	–	–	–	–
Ethyl 3-(4-bromobenzoyl)-6,8-dimethylindolizine-1-carboxylate [KNV3]	> 30000	> 30000	> 30000	> 30000	> 30000	–	–	–	–	–
Ethyl 3-(4-fluorobenzoyl)-6,8-dimethylindolizine-1-carboxylate [KNV5]	> 30000	213 ± 16	196 ± 55	> 30000	> 30000	not active	213	196	not active	not active

Now from value to compound:

Ki [1] [nM]	Ki [2, 6] [nM]	IC50 [3, 7] [nM]	IC50 [4] [nM]	Ki [5] [nM]	activity in the other subtypes (A1) [1]	Ki ([2]; unit inferred, read-out: Ki towards A3AR) [nM]	IC50 ([3]; unit inferred, read-out: IC50, antagonistic activity on A3AR) [nM]	activity in the other subtypes (A2B) [4]	activity in the other subtypes (A2A) [5]	Compound
> 30000	591 ± 112	1510 ± 351	> 30000	> 30000	–	–	–	–	–	CCOC(=O)c1cc(C(=O)c2ccc(Cl)cc2)n2cc(C)cc(C)c12 [KNV1, Ethyl 3-(4-chlorobenzoyl)-6,8-dimethylindolizine-1-carboxylate]
1330 ± 217	1910 ± 45	7900 ± 1080	> 30000	4820 ± 243	–	–	–	–	–	COC(=O)c1c(C(=O)OC)c2c(C)cc(C)cn2c1C(=O)c1ccc(OC)cc1 [KNV2, Dimethyl 3-(4-methoxybenzoyl)-6,8-dimethylindolizine-1,2-dicarboxylate]
6980 ± 330	2160 ± 468	9580 ± 1080	> 30000	5540 ± 998	–	–	–	–	–	COC(=O)c1c(C(=O)OC)c2c(C)cc(C)cn2c1C(=O)c1ccc(Br)cc1 [KNV4, Dimethyl 3-(4-bromobenzoyl)-6,8-dimethylindolizine-1,2-dicarboxylate]
> 30000	930 ± 159	3420 ± 879	> 30000	7970 ± 1660	–	–	–	–	–	CCOC(=O)c1cc(C(=O)c2ccccc2[N+](=O)[O-])n2cc(C)cc(C)c12 [KNV6, Ethyl 6,8-dimethyl-3-(2-nitrobenzoyl)indolizine-1-carboxylate]
> 30000	1070 ± 157	4210 ± 1150	> 30000	4970 ± 508	–	–	–	–	–	CCOC(=O)c1cc(C(=O)c2ccc(C)cc2)n2cc(C)cc(C)c12 [KNV7, Ethyl 6,8-dimethyl-3-(4-methylbenzoyl)indolizine-1-carboxylate]
2390 ± 171	3090 ± 6	11000 ± 2050	> 30000	1609 ± 13	–	–	–	–	–	COC(=O)c1c(C(=O)OC)c2c(C)cc(C)cn2c1C(=O)c1ccc(C)cc1 [KNV8, Dimethyl 6,8-dimethyl-3-(4-methylbenzoyl)indolizine-1,2-dicarboxylate]
5610 ± 1080	924 ± 127	4210 ± 521	> 30000	6880 ± 705	–	–	–	–	–	COC(=O)c1c(C(=O)OC)c2c(C)cc(C)cn2c1C(=O)c1ccc(Cl)cc1 [KNV10, Dimethyl 3-(4-chlorobenzoyl)-6,8-dimethylindolizine-1,2-dicarboxylate]
